Source: patent US7589092B2, “Prodrugs of heteroaryl compounds” (Koronis Pharmaceuticals, Incorporated, priority 2003, dated 2009)

What was measured:
[1] = test concentration 100 um, RT, 60 minutes equilibration
Experimental: The compounds were first dissolved in a 60% methanol/40% water (v/v) solution containing 1% DMSO and brought to a concentration of 100 μM. The optimal detection wavelength was determined and calibration studies were performed with the solution. After calibration, the compounds were placed into n-octanol-PBS buffer at pH 7.4 at RT. The mixture was shaken and allowed to equilibrate for 60 minutes. The amount of compound in the PBS buffer phase was then determined by HPLC/UV-Vis. The amount of compound in n-octanol was determined by subtracting […]. This experiment was conducted for three samples. These three samples were then each corrected for volume and the results were averaged. Log D was calculated as the Log10 of the amount of compound in the n-octanol phase divided by the amount of compound in the buffer phase.
Lipophilicity is a major structural factor that influences the pharmacokinetic and pharmacodynamic behavior of compounds. In this assay, prodrugs C7-DHAdC, C8-DHAdC, and C9-DHAdC were partitioned between n-octanol and phosphate buffered saline (PBS).

[2] = Bioavailability / pharmacokinetic study in dogs; format: in vivo, Canis familiaris; details: dog
Text: This study tested the bioavailability of different test compounds in dogs, by intravenous or oral gavage administration, at prescribed dose levels. The animals tested in this study were Canis familiaris, from Harlan Sprague Dawley (Indianapolis, Ind.). Four dogs (2 males and 2 females), with an average age of seven months, were included in each test group. The dogs were identified by ear tattoos, and given a fourteen day acclimatization period prior to the commencement of testing. Dogs were group housed but separated by sex. The animal room environment was controlled and monitored daily. The temperature ranged from 18 to 29° C. and the relative humidity ranged from 30%-70%. The photocycle was 12 hours light and 12 hours dark. All animals were submitted to a general physical examination and only those found healthy were admitted for the study. All selected animals were given two days to adjust to laboratory conditions before the study began. Teklad Dog Diet was fed twice daily and water was constantly available to the dogs throughout the acclimatization and study periods. Twenty-four hours prior to the initiation of the study, animals were randomly selected into two groups with 1 male and 1 female in each group. […] Blood was collected from the v. cephalica antebrachii of each of the two animals prior to study initiation, at thirty minutes and at 1, 2, 4, and 12 hours after dosing. […] IV dosages of DHAdC, as well as oral dosages of prodrugs […] C9-DHAdC were recorded. The dogs were administered 50 mg/kg DHAdC or DHAdC equivalent in the case of prodrugs. The maximum concentration (Cmax), clearance (AUC∞), half-life (T1/2), and % Oral Bioavailability were recorded and are presented in Table 2: […]

[3] = Bioavailability / pharmacokinetic study in rats; format: in vivo; details: rat
Text: This study tested the bioavailability of different test compounds in rats, by oral gavage administration, at prescribed dose levels. The animals tested in this study were Rattus norvegicus, CD strain, from Charles River Canada (Montreal, Canada). Six males were included in each test group. Their weight ranged from 200 to 250 grams before fasting. […] Rats were individually housed in Nalgene rat cages with stainless steel covers. The animal room environment was controlled and monitored daily. The temperature ranged from 18 to 26° C. and the relative humidity ranged from 30%-70%. The photocycle was 12 hours light and 12 hours dark. All animals were submitted to a general physical examination and only those found healthy were admitted for the study. All selected animals were given two days to adjust to laboratory conditions before the study began. Teklad rodent Diet and water were constantly available to the rats throughout the acclimatization and study periods. Forty-eight hours prior to the initiation of the study, animals were randomly selected and two subsets of 3 male rats per group were formed. Due to the large volume of blood taken, collections will be done by alternating timepoints between subsets. All animals were fasted for twelve hours prior to the initiation of the study. […] Blood was collected from the orbital sinus of animals from each group at thirty minutes and at 1, 2, 4, and 12 hours after dosing. At each blood collection time point, three rats per group were bled. […] Oral and IV dosages of DHAdC, as well as oral dosages of prodrugs C7-DHAdC and C9-DHAdC were recorded. The rats were administered 100 mg/kg DHAdC or DHAdC equivalent in the case of prodrugs. The maximum concentration (Cmax), clearance (AUC∞), half-life (T1/2), and % Oral Bioavailability were recorded and are presented in Table 1: […]

[4] = tested on: HIV; details: Bouchard et al.; cited from earlier work
[5] = deamination product of 5-aza-dC; Momparler et al.; cited from earlier work
[6] = oral gavage, 50 mg/kg DHAdC equivalent
[7] = oral gavage, 100 mg/kg DHAdC or DHAdC equivalent
[8] = both sexes, blood, IV, 50 mg/kg DHAdC
[9] = male, CD, blood, IV, 100 mg/kg DHAdC
[10] = male, CD, blood, oral gavage, 100 mg/kg DHAdC or DHAdC equivalent

Row | SMILES | log D n-Octanol PBS pH 7.4 [1] | AUC∞ [2, 6] | Cmax [2, 6] | Oral bioavailability [2, 6] [%] | T1/2 [2, 6] [h] | AUC∞ [3, 7] | Cmax [3, 7] | Oral bioavailability [3, 7] [%] | T1/2 [3, 7] [h] | further results
1 | Nc1ncn([C@H]2C[C@H](O)[C@@H](CO)O2)c(=O)n1 [Compound 5-aza-dC, 5-aza-2′-deoxycytidine] |  |  |  |  |  |  |  |  |  | HIV replication in vitro [4]: inhibit HIV replication in vitro
2 | O=c1ncn([C@H]2C[C@H](O)[C@@H](CO)O2)c(=O)[nH]1 [Compound 5-aza-dU, 5-aza-2′-deoxyuridine] |  |  |  |  |  |  |  |  |  | antineoplastic activity [5]: loss of antineoplastic activity
3 | NC1=NC(=O)N([C@H]2C[C@H](O)[C@@H](CO)O2)CN1 [DHAdC, 5,6-dihydro-5-aza-2′-deoxycytidine] |  |  |  |  |  |  |  |  |  | AUC(0-inf) [2, 8]: 156000 ng·h/mL; half-life [2, 8]: 2.1 h; Cmax ([2]; both sexes, blood, IV, 50 mg/kg DHAdC, read-out: Cmax): 76300 ng/mL; AUC(0-inf) [3, 9]: 75000 ng·h/mL; half-life [3, 9]: 1.8 h; Cmax ([3]; male, CD, blood, IV, 100 mg/kg DHAdC, read-out: Cmax): 40000 ng/mL; AUC(0-inf) [3, 10]: 8540 ng·h/mL; bioavailability [3, 10]: 11%; half-life [3, 10]: 0.8 h; Cmax ([3]; male, CD, blood, oral gavage, 100 mg/kg DHAdC or DHAdC equivalent, read-out: Cmax): 1860 ng/mL

Continued, in another order:

Row | log D n-Octanol PBS pH 7.4 [1] | AUC∞ [2, 6] | Cmax [2, 6] | Oral bioavailability [2, 6] [%] | T1/2 [2, 6] [h] | AUC∞ [3, 7] | Cmax [3, 7] | Oral bioavailability [3, 7] [%] | T1/2 [3, 7] [h] | SMILES | further results
4 | 2.04 | 59,377 ng-hr/mL | 11,282 ng/mL | 51 | 2.1 | 32,101 ng-hr/mL | 5,577 ng/mL | 43 | 3.9 | CCCCCCCOC(=O)NC1=NC(=O)N([C@H]2C[C@H](O)[C@@H](CO)O2)CN1 [Compound C7-DHAdC, N^4-Heptyloxycarbonyl-β-2′-deoxy-5,6-dihydro-5-azacytidine] | 
5 | 2.56 | 17,845 ng-hr/mL | 5,172 ng/mL | 11 | 2.8 |  |  |  |  | CCCCCCCCOC(=O)NC1=NC(=O)N([C@H]2C[C@H](O)[C@@H](CO)O2)CN1 [Compound C8-DHAdC, N^4-Octyloxycarbonyl-β-2′-deoxy-5,6-dihydro-5-azacytidine] | 
6 | 3.16 | 54,540 ng-hr/mL | 8,932 ng/mL | 36 | 2.2 | 26,472 ng-hr/mL | 5,550 ng/mL | 35 | 3.6 | CCCCCCCCCOC(=O)NC1=NC(=O)N([C@H]2C[C@H](O)[C@@H](CO)O2)CN1 [Compound C9-DHAdC, N^4-Nonyloxycarbonyl-β-2′-deoxy-5,6-dihydro-5-azacytidine] | 
